Entries after “also recorded” stand apart in the source; their conditions may differ.
What was measured:
[1] = system: P4 cell line; experiment: Redox Stress Survival assay (BSO-induced cell death, Calcein AM viability); assay type: cell-based, human; details: P4 cells
Procedure: (§1) Cells were seeded at a density of 4 × 10^3 cells/well into 96-wells black plates and incubated for 24 h. To induce redox stress, semi-logarithmic dilutions of buthionine sulphoximine (BSO, #B2515, Sigma Aldrich) up to 100 µM were added to the cells in culture medium and incubated for 24 h. Cell viability was assessed by quantification of cellular conversion of Calcein AM into fluorescent Calcein. Briefly, after having discarded the BSO containing medium, cells were washed once with M199 without phenol red and loaded with 2 µM Calcein AM (#65-0853-39, Affimetrix eBioscience) in M199 without phenol red for 25 min. At the end of the incubation period, the excess of the dye was washed with M199 without phenol red and Calcein fluorescence was measured with a scanning microplate reader (BMG FLUOstar Omega; Ex. 480 nm, Em. 520 nm). For compound screening and target identification measurements cells were treated with 200 µM BSO alone or in co-incubation with semi-logarithmic dilutions of the test compound. Additionally, where indicated, increasing doses of Auranofin (AFN, #BML-EI206-0100, Enzo) or Aurothioglucose (ATG, #A0606, Sigma Aldrich) were co-incubated with BSO and the test compound. In all cases, cell viability was assessed 24 h after the treatment.

[2] = system: C3 control cell line; experiment: Redox Stress Survival assay (BSO sensitivity); assay type: cell-based, human; details: C3, 24 h
Procedure: as §1

[3] = system: C2 control cell line; experiment: Redox Stress Survival assay (BSO sensitivity); assay type: cell-based, human; details: C2, 24 h
Procedure: as §1

[4] = system: C1 control cell line; experiment: Redox Stress Survival assay (BSO sensitivity); assay type: cell-based, human; details: C1, 24 h
Procedure: as §1

[5] = system: P6 cell line (Complex I, NDUFS8); experiment: Redox Stress Survival assay (BSO sensitivity); assay type: cell-based, human; details: P6, 24 h
Procedure: as §1

[6] = system: P2 cell line (Complex I, NDUFS2); experiment: Redox Stress Survival assay (BSO sensitivity); assay type: cell-based, human; details: P2, 24 h
Procedure: as §1

[7] = system: primary human skin fibroblasts; experiment: CumOOH induced lipid peroxidation (bodipy 581/591 C11); assay type: cell-based; details: 30 µM cumOOH, bodipy 581/591 C11
Procedure: The cells were seeded at a density of 3 × 10^3 cells/well into 96-wells black plates. After 24 h, the cells were coincubated with 500 nM bodipy 581/591 C11 (#D3861, Thermo Fisher) and different amounts of KH compound in M199 without phenol red. This medium was used in all subsequent washes and incubations. After 30 min. incubation the cells were washed twice and subsequently incubated with 30 μM cumene hydroperoxide (cumOOH). For background subtractions cells with the dye but without cumOOH were used. After 30 minutes incubation and two washes oxidized bodipy 581/591 C11 was quantified on an automated bioimager (BD Pathway 855), by using a 20x objective and Ex. 488/10 nm, Em. FURA/FITC. Total cellular fluorescence per well was normalized on the number of cellular pixels/well and normalized on the incubation with probe and cumOOH but without compound (vehicle set as 100%). Experiments were performed at least three times with 3 wells per experiment.

[8] = system: P4 cell line; experiment: Radical-Scavenging Capacity assay (CM-H2DCFDA, H2O2 or KO2); assay type: cell-based, human; details: P4 cells, 100 µM H2O2 or 1 mM KO2 (text: KOH), 3 µM compound
Procedure: Cells were seeded at a density of 4 × 10^3 cells/well into 96-wells black plates. After 24 h the cells were loaded with 5 µM CM-H2DCFDA in M199 without phenol red for 20 min. The dye excess was washed with M199 without phenol red and immediately after, cells were treated acutely with different concentrations of the test compounds in M199 without phenol red. To generate radicals, 100 µM H2O2 or 1 mM KO2 were injected to the compound-treated cells and CM-DCF fluorescence was measured every 2 min for 70 cycles on a scanning microplate reader (BMG FLUOstar Omega; Ex. 480 nm, Em. 520 nm). The area under the generated curves was calculated using the Origin 6.1 software (OriginLab).

[9] = system: P4 cell line; experiment: Cellular ROS assay (DCFH-DA); assay type: cell-based, human
Procedure: The cells were then treated for 72 h (or shorter as indicated) with culture medium containing semi-logarithmic dilutions of the test compound. Alternatively, 3 × 10^3 cells/well were seeded when cells were treated for 24 h only. At the end of the incubation period, cells were loaded with 40 µM DCFH-DA (#D6883, Sigma-Aldrich). in M199 without phenol red for 30 min. The excess of the dye was washed with ice-cold M199 without phenol red and the cells were lysed with 100 µl/well of ice-cold 0.2% Triton X-100 in M199 without phenol red after 10 min incubation in ice. Cellular debris was spun down by centrifugation at 2600 g, 5 min, +4 °C and 90 µl/well of cell lysate were transferred to a black 96-wells plate and DCF fluorescence was measured on a scanning microplate reader (BMG FLUOstar Omega; Ex. 480 nm, Em. 520 nm).

CCCCS(=N)(=O)CCC(N)C(=O)O (centres unmarked) [BSO, Buthionine sulphoximine]
IC50 ([1]; 24 h BSO up to 100 µM): 3.8 µM | IC50 BSO [2]: n.s. | IC50 BSO [3]: n.s. | IC50 BSO [4]: n.s. | IC50 BSO [5]: n.s. | IC50 BSO [6]: n.s.

COc1c(C)c(C)c2c(c1C)CC[C@@](C)(C(=O)N[C@@H]1CCCNC1)O2 [KH176i]
Effect on CumOOH induced lipid peroxidation [7]: no effect; also recorded: no activity | Reduction of H2O2-induced radicals and O2.- (CM-H2DCFDA oxidation) [8]: not | Activity in the ROS assay ([9]; P4 cells, 24 h compound treatment): inactive | Rescue of cell viability from BSO-induced death ([1]; 200 µM BSO, 24 h): unable to rescue cell viability

Cc1c(C)c2c(c(C)c1O)CCC(C)(C(=O)O)O2 (centres unmarked) [Trolox, reference compound]
IC50 ([9]; Homo sapiens, P4 cells, 72 h treatment): 187 µM | EC50 ([1]; Homo sapiens, 200 µM BSO, 24 h): 38 µM

auranofin [AFN, reference compound]
Effect of thioredoxin reductase inhibition on ROS reduction by KH176m ([9]; 24 hours, 100 nM AFN with 1 µM KH176m, DCFH-DA): did not affect the capacity of KH176m to reduce the DCFH-DA signal | Effect of thioredoxin reductase inhibition on rescue by KH176(m) ([1]; 200 µM BSO, 100 nM AFN): decrease of the capacity of KH176(m) to rescue the cells

From PMC5920042, “KH176 Safeguards Mitochondrial Diseased Cells from Redox Stress-Induced Cell Death by Interacting with the Thioredoxin System/Peroxiredoxin Enzyme Machinery” (Scientific Reports, 2018)
